Laboratory results as given in the NIST ThermoML archive (doi:10.1007/s10765-009-0593-3).
Numbers after ± are expanded uncertainties.

Assay: xn = mol fraction of the nth substance listed
Conditions: 101 kPa, Liquid; for speed of sound: Pulse-echo method

CCCOCC(C)OCC(C)O (stereo not given) [1-(1-methyl-2-propoxyethoxy)-2-propanol] + CCCCN(CCCC)CCCC
Conditions | mass density, 288.15 K [kg/m3] | mass density, 293.15 K [kg/m3] | mass density, 298.15 K [kg/m3] | mass density, 303.15 K [kg/m3] | mass density, 308.15 K [kg/m3] | speed of sound, 288.15 K [m/s] | speed of sound, 293.15 K [m/s] | speed of sound, 298.15 K [m/s] | speed of sound, 303.15 K [m/s] | speed of sound, 308.15 K [m/s]
x1 = 0.1122 | 794.307 ± 0.48 | 790.425 ± 0.48 | 786.535 ± 0.49 | 782.639 ± 0.49 | 778.737 ± 0.5 | 1282.3 ± 0.82 | 1263 ± 0.82 | 1243.9 ± 0.81 | 1225 ± 0.81 | 1206.3 ± 0.8
x1 = 0.1665 | 800.621 ± 0.47 | 796.684 ± 0.47 | 792.738 ± 0.48 | 788.781 ± 0.49 | 784.827 ± 0.49 | 1282.3 ± 0.83 | 1262.8 ± 0.82 | 1243.7 ± 0.81 | 1224.8 ± 0.81 | 1206.1 ± 0.8
x1 = 0.2084 | 805.602 ± 0.46 | 801.628 ± 0.47 | 797.652 ± 0.47 | 793.661 ± 0.48 | 789.668 ± 0.48 | 1282.3 ± 0.83 | 1262.9 ± 0.82 | 1243.8 ± 0.81 | 1224.9 ± 0.81 | 1206.2 ± 0.8
x1 = 0.2538 | 811.153 ± 0.45 | 807.13 ± 0.46 | 803.115 ± 0.46 | 799.083 ± 0.47 | 795.057 ± 0.48 | 1282.4 ± 0.82 | 1263.2 ± 0.82 | 1244.1 ± 0.81 | 1225.3 ± 0.81 | 1206.5 ± 0.8
x1 = 0.313 | 818.607 ± 0.44 | 814.554 ± 0.45 | 810.479 ± 0.45 | 806.404 ± 0.46 | 802.329 ± 0.47 | 1282.5 ± 0.82 | 1264 ± 0.82 | 1244.9 ± 0.81 | 1226.1 ± 0.81 | 1207.4 ± 0.8
x1 = 0.3558 | 824.155 ± 0.43 | 820.06 ± 0.44 | 815.967 ± 0.45 | 811.844 ± 0.45 | 807.734 ± 0.46 | 1282.8 ± 0.82 | 1264.8 ± 0.82 | 1245.7 ± 0.81 | 1227 ± 0.81 | 1208.3 ± 0.8
x1 = 0.4148 | 832.006 ± 0.42 | 827.869 ± 0.43 | 823.733 ± 0.43 | 819.576 ± 0.44 | 815.399 ± 0.45 | 1283.3 ± 0.82 | 1266.2 ± 0.82 | 1247.2 ± 0.81 | 1228.5 ± 0.81 | 1209.8 ± 0.8
x1 = 0.4472 | 836.41 ± 0.41 | 832.261 ± 0.42 | 828.099 ± 0.43 | 823.913 ± 0.43 | 819.704 ± 0.44 | 1283.7 ± 0.82 | 1267.1 ± 0.82 | 1248.1 ± 0.81 | 1229.4 ± 0.81 | 1210.8 ± 0.8
x1 = 0.5008 | 843.844 ± 0.4 | 839.656 ± 0.41 | 835.454 ± 0.42 | 831.251 ± 0.42 | 826.995 ± 0.43 | 1284.5 ± 0.82 | 1268.8 ± 0.82 | 1249.8 ± 0.81 | 1231.2 ± 0.81 | 1212.6 ± 0.8
x1 = 0.5451 | 850.136 ± 0.4 | 845.938 ± 0.4 | 841.706 ± 0.41 | 837.473 ± 0.41 | 833.167 ± 0.42 | 1285.5 ± 0.82 | 1270.3 ± 0.82 | 1251.5 ± 0.82 | 1232.8 ± 0.81 | 1214.3 ± 0.8
x1 = 0.6077 | 859.289 ± 0.38 | 855.06 ± 0.39 | 850.786 ± 0.39 | 846.555 ± 0.4 | 842.165 ± 0.41 | 1287.2 ± 0.82 | 1272.8 ± 0.82 | 1254 ± 0.82 | 1235.4 ± 0.81 | 1217 ± 0.8
x1 = 0.6566 | 866.709 ± 0.37 | 862.46 ± 0.38 | 858.15 ± 0.38 | 853.912 ± 0.39 | 849.462 ± 0.4 | 1288.9 ± 0.83 | 1274.9 ± 0.82 | 1256.2 ± 0.82 | 1237.7 ± 0.81 | 1219.3 ± 0.81
x1 = 0.7143 | 875.786 ± 0.36 | 871.507 ± 0.36 | 867.175 ± 0.37 | 862.905 ± 0.38 | 858.43 ± 0.38 | 1291.3 ± 0.83 | 1277.5 ± 0.82 | 1258.8 ± 0.82 | 1240.4 ± 0.81 | 1222.1 ± 0.81
x1 = 0.7514 | 881.851 ± 0.35 | 877.544 ± 0.35 | 873.195 ± 0.36 | 868.91 ± 0.37 | 864.43 ± 0.37 | 1293.2 ± 0.83 | 1279.3 ± 0.82 | 1260.7 ± 0.82 | 1242.3 ± 0.81 | 1224.1 ± 0.81
x1 = 0.8016 | 890.298 ± 0.34 | 885.967 ± 0.34 | 881.597 ± 0.35 | 877.285 ± 0.36 | 872.799 ± 0.36 | 1296.1 ± 0.83 | 1281.7 ± 0.82 | 1263.2 ± 0.82 | 1245 ± 0.81 | 1226.8 ± 0.81
x1 = 0.856 | 897.74 ± 0.33 | 895.367 ± 0.33 | 890.981 ± 0.34 | 886.63 ± 0.34 | 882.174 ± 0.35 | 1299.9 ± 0.83 | 1284.4 ± 0.82 | 1266.1 ± 0.82 | 1247.9 ± 0.81 | 1230 ± 0.81
x1 = 0.904 | 908.188 ± 0.31 | 903.8 ± 0.32 | 899.4 ± 0.32 | 894.989 ± 0.33 | 890.566 ± 0.34 | 1303.7 ± 0.83 | 1286.8 ± 0.83 | 1268.7 ± 0.82 | 1250.6 ± 0.81 | 1232.8 ± 0.81
x1 = 0.9553 | 917.078 ± 0.3 | 912.677 ± 0.3 | 908.256 ± 0.31 | 903.826 ± 0.32 | 899.408 ± 0.32 | 1308.3 ± 0.83 | 1289.5 ± 0.83 | 1271.5 ± 0.82 | 1253.5 ± 0.82 | 1235.9 ± 0.81
